Like-named read-outs stand apart in the source and are kept apart here.
What was measured:
[1] = target: T1, human α1B‐adrenoceptor (Homo sapiens, UniProt P35368); experiment: ^3H‐cAMP accumulation, CHO‐α1B cells; assay type: cell-based; details: CHO‐α1B cells; for cAMP accumulation % forskolin: % forskolin maximum response; for EC50: read-out: cAMP accumulation Log EC50 (converted)
T1 construct: expressed in transfected cells; host or cells: CHO-K1
T1 sequence (P35368 1-520): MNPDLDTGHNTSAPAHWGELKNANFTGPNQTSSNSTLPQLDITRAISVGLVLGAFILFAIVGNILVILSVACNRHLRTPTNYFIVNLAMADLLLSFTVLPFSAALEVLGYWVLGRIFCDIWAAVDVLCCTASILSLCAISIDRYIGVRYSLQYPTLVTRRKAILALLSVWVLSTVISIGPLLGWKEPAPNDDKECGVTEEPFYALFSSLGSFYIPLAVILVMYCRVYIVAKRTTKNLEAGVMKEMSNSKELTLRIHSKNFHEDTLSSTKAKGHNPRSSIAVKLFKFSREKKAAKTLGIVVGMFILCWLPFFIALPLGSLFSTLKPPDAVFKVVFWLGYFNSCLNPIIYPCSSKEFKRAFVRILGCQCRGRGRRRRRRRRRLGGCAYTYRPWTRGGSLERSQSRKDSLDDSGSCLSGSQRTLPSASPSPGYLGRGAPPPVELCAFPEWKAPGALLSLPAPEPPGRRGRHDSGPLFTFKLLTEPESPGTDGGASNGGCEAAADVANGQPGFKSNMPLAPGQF

[2] = target: T2, human α1D‐adrenoceptor (full length) (Homo sapiens, UniProt P25100); experiment: ERK1/2‐phosphorylation (Surefire Alphascreen), CHO‐α1D cells; assay type: cell-based
T2 construct: human α1D‐adrenoceptor (full length) were used; expressed in transfected cells; host or cells: CHO-K1
T2 sequence (P25100 1-572): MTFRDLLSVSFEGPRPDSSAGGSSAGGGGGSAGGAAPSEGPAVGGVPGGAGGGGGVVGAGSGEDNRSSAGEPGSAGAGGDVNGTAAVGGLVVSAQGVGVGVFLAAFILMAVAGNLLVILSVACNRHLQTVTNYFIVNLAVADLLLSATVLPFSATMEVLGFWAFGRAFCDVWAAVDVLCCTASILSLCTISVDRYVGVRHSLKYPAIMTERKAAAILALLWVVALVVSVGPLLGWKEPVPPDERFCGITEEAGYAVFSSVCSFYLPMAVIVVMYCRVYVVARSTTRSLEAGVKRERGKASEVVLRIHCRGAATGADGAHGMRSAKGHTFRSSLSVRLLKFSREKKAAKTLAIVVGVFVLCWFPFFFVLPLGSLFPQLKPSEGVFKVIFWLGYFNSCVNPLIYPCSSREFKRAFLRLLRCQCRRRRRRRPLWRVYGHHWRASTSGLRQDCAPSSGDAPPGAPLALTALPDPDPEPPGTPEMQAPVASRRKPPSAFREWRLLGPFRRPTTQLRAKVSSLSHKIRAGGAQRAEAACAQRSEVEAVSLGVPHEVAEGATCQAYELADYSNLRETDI

[3] = target: T3, human α1A‐adrenoceptor (Homo sapiens, UniProt P35348); experiment: ^3H‐cAMP accumulation, CHO‐α1A cells; assay type: cell-based; details: CHO‐α1A cells; for cAMP accumulation % forskolin: % of 10 µM forskolin response
T3 construct: expressed in transfected cells; host or cells: CHO-K1
T3 sequence (P35348 1-466): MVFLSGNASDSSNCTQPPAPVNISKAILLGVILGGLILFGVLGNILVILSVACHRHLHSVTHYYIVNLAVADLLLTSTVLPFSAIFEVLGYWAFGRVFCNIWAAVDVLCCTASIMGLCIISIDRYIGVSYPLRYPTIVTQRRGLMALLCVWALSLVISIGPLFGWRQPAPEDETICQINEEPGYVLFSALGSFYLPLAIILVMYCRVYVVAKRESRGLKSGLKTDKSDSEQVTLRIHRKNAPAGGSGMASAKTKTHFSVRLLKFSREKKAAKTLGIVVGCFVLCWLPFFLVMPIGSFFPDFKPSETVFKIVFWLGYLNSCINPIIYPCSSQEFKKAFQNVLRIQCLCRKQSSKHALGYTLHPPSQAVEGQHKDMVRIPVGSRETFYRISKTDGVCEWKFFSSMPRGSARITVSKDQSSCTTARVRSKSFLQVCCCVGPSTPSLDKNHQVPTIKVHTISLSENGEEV

[4] = target: T3, human α1A‐adrenoceptor; experiment: Intracellular free calcium mobilization, CHO‐α1A cells; assay type: cell-based
[5] = target: T1, human α1B‐adrenoceptor; experiment: ^3H‐cAMP accumulation in the presence of 10 μM forskolin, CHO‐α1B cells; assay type: cell-based; details: CHO‐α1B cells; for EC50: in presence of forskolin, read-out: cAMP accumulation (in presence of forskolin) Log EC50 (converted)
[6] = target: T2, human α1D‐adrenoceptor (full length); experiment: Intracellular free calcium mobilization, CHO‐α1D cells; assay type: cell-based
[7] = tested on: parental CHO cell line without any transfected receptors; experiment: ERK1/2‐phosphorylation, parent CHO cells without transfected receptors; assay type: cell-based, Chinese hamster
[8] = target: T1, human α1B‐adrenoceptor; experiment: Intracellular free calcium mobilization, CHO‐α1B cells; assay type: cell-based
[9] = target: T1, human α1B‐adrenoceptor; experiment: ERK1/2‐phosphorylation (Surefire Alphascreen), CHO‐α1B cells; assay type: cell-based
[10] = target: T2, human α1D‐adrenoceptor (full length); experiment: ^3H‐prazosin whole‐cell radioligand binding, CHO‐α1D cells
[11] = tested on: parental CHO cell line without any transfected receptors; experiment: Forskolin‐stimulated cAMP accumulation, parent CHO cells without transfected receptors; assay type: cell-based, Chinese hamster
[12] = tested on: parental CHO cell line without any transfected receptors; experiment: Intracellular calcium mobilization, parent CHO cells without transfected receptors; assay type: cell-based, Chinese hamster; details: Cricetulus griseus; CHO cells without transfected receptors; response at maximum concentration used (c2), as % of ionomycin (10μM) response; mean ± s.e.m.; read-out: Intracellular calcium release % ionomycin
[13] = target: T1, human α1B‐adrenoceptor; experiment: ^3H‐prazosin whole‐cell radioligand binding, CHO‐α1B cells
[14] = target: T3, human α1A‐adrenoceptor; experiment: ERK1/2‐phosphorylation (Surefire Alphascreen), CHO‐α1A cells; assay type: cell-based
[15] = target: T3, human α1A‐adrenoceptor; experiment: ^3H‐prazosin whole‐cell radioligand binding, CHO‐α1A cells
[16] = target: T3, human α1A‐adrenoceptor; experiment: ^3H‐cAMP accumulation in the presence of 10 μM forskolin, CHO‐α1A cells; assay type: cell-based; details: CHO‐α1A cells
[17] = target: T2, human α1D‐adrenoceptor (full length); experiment: ^3H‐cAMP accumulation in the presence of 10 μM forskolin, CHO‐α1D cells; assay type: cell-based; details: for Effect on cAMP accumulation in the presence of forskolin, CHO‐α1D cells: not α1‐mediated
[18] = read-out: ERK1/2‐phosphorylation Log EC50 (converted)
[19] = read-out: Intracellular calcium release Log EC50 (converted)
[20] = fold increase of the forskolin response

Clc1cccc(Cl)c1N=C1NCCN1 [Clonidine]
cAMP accumulation % forskolin [1]: 7.5 ± 0.8%
EC50 [1]: 0.251 µM
ERK1/2‐phosphorylation % PDBu at 100 µM [2]: 6.1 ± 1.3%
cAMP accumulation % forskolin [3]: 33.8 ± 3.2%
Intracellular calcium release % ionomycin [4]: 51.6 ± 1.2%
EC50 [5]: 0.0447 µM
Intracellular calcium release % Ionomycin at 100 µM [6]: 8.0 ± 0.5%
ERK1/2-phosphorylation % PDBu ([7]; CHO cells without transfected receptors, maximal response as % of PDBu (10μM) response, mean ± s.e.m.): No response
Intracellular calcium release % ionomycin [8]: 45.4 ± 2.1%
EC50 ([8]; Intracellular calcium release Log EC50, CHO‐α1B cells, given as log EC50 (negative numbers)): 0.017 µM
ERK1/2‐phosphorylation % PDBu [9]: 60.6 ± 7.6%
EC50 ([9]; ERK1/2‐phosphorylation Log EC50, CHO‐α1B cells, for bi‐phasic responses the initial stimulatory part): 0.0891 µM
Kd ([10]; 3H‐prazosin binding Log KD, CHO‐α1D cells, whole‐cell binding (from Table 1), log values given negative): 2.57 µM
Kd ([10]; Log KD α1D, ^3H‐prazosin whole cell binding, CHO‐α1D cells, given as log KD (negative), mean ± SEM, 'early plateau' = specific binding not fully inhibited): 2.57 µM
cAMP accumulation (in presence of forskolin) Log EC50 ([11]; CHO cells without transfected receptors, in presence of forskolin): No response
Emax [12]: 1.6 ± 1%
Kd ([13]; Log KD α1B, ^3H‐prazosin whole cell binding, CHO‐α1B cells, given as log KD (negative), mean ± SEM): 7.41 µM
Kd ([13]; Log KD, ^3H‐prazosin binding, CHO‐α1B cells, whole‐cell binding (from Table 1), given as log KD (negative numbers)): 7.41 µM
ERK1/2‐phosphorylation % PDBu [14]: 85.7 ± 4.7%

Cc1cccc(C(C)c2cnc[nH]2)c1C (stereo not drawn) [Medetomidine]
cAMP accumulation % forskolin [1]: 4.6 ± 0.9%
EC50 [1]: 0.115 µM
ERK1/2‐phosphorylation % PDBu [2]: 22.6 ± 5.1%
EC50 [2, 18]: 7.24 µM
EC50 ([3]; 5 h, read-out: cAMP accumulation Log EC50 (converted)): 0.646 µM
cAMP accumulation % forskolin [3]: 46.3 ± 5.2%
Intracellular calcium release % ionomycin [4]: 57.2 ± 1.8%
Log efficacy ratio KD /EC50 [4]: 2.06
EC50 [4, 19]: 0.0204 µM
cAMP accumulation (in presence of forskolin) Fold increase [5, 20]: 1.52 ± 0.04 fold
EC50 [5]: 0.0933 µM
Intracellular calcium release % Ionomycin at 100 µM [6]: 11.5 ± 2.3%
Emax at 100 µM ([7]; Cricetulus griseus, CHO, read-out: ERK1/2-phosphorylation % PDBu at 100μM): 7.9 ± 3.8%
Intracellular calcium release % ionomycin [8]: 43.0 ± 3.4%
Log efficacy ratio KD /EC50 [8]: 2.09
EC50 [8, 19]: 0.117 µM
ERK1/2‐phosphorylation % PDBu [9]: 55.2 ± 5.3%
EC50 [9, 18]: 0.138 µM
Affinity selectivity ratio α1A vs α1B [15]: 6.2 fold
Kd ([15]; Log KD α1A, ^3H‐prazosin whole cell binding): 2.34 µM
EC50 ([16]; 10 μM forskolin, read-out: cAMP accumulation (in presence of forskolin) Log EC50 (converted)): 0.126 µM
cAMP accumulation (in presence of forskolin) Fold increase [16, 20]: 2.12 ± 0.09 fold
Affinity selectivity ratio α1A vs α1D [10]: 1.1 fold
Affinity selectivity ratio α1B vs α1D [10]: 6.8 fold
Kd ([10]; 3H‐prazosin binding Log KD): 2.14 µM
Kd ([10]; Log KD α1D, ^3H‐prazosin whole cell binding): 2.14 µM
cAMP accumulation (in presence of forskolin) % forskolin-stim cAMP at 100μM ([11]; CHO cells without transfected receptors, response at 100μM only, EC50 not obtainable, % of forskolin-stimulated cAMP): 88.4 ± 3.2%
Emax [12]: 11.7 ± 2.4%
Kd ([13]; Log KD α1B, ^3H‐prazosin whole cell binding): 14.5 µM
Kd ([13]; Log KD, ^3H‐prazosin binding): 14.5 µM
ERK1/2‐phosphorylation % PDBu [14]: 85.8 ± 3.3%
EC50 [14, 18]: 0.0316 µM

Cc1cc(C(C)(C)C)c(O)c(C)c1CC1=NCCN1 [Oxymethazoline]
ERK1/2‐phosphorylation % PDBu ([2]; CHO‐α1D cells, maximal response as % of PDBu): 48.6 ± 5.4%
% inhibition of forskolin‐stimulated cAMP ([17]; CHO‐α1D cells, decrease in forskolin‐stimulated cAMP accumulation (footnote b)): *28.7 ± 2.9%
Effect on cAMP accumulation in the presence of forskolin, CHO‐α1D cells ([17]; listed as Oxymetazoline): decrease in cAMP accumulation
Effect on cAMP accumulation in the presence of forskolin, CHO‐α1D cells ([17]; listed as oxymetazoline): inhibitory cAMP response
cAMP accumulation % forskolin [3]: 43.9 ± 5.2%
Intracellular calcium release % ionomycin ([4]; CHO‐α1A cells, maximal response as % of 10 µM ionomycin): 54.5 ± 2.5%
Intracellular calcium release % ionomycin ([6]; CHO‐α1D cells, maximal response as % of 10 µM ionomycin): 7.6 ± 1.0%
Emax ([7]; Cricetulus griseus, CHO cells without transfected receptors, maximal response as % of PDBu (10μM) response, mean ± s.e.m., read-out: ERK1/2-phosphorylation % PDBu): 46.7 ± 6%
EC50 ([7]; Cricetulus griseus, CHO cells without transfected receptors, mean ± s.e.m., read-out: ERK1/2-phosphorylation Log EC50 (converted)): 0.011 µM
ERK1/2‐phosphorylation response in parent CHO cells ([7]; untransfected cells): stimulated ERK1/2‐phosphorylation responses
% inhibition of forskolin-stimulated cAMP ([11]; CHO cells without transfected receptors, footnote *: % inhibition): 18.1 ± 2.2%
IC50 ([11]; Cricetulus griseus, CHO cells without transfected receptors, footnote *: log IC50, read-out: log IC50, decrease in forskolin-stimulated cAMP accumulation (converted)): 0.0195 µM
Effect on cAMP accumulation in the presence of forskolin, parent cells ([11]; untransfected cells): decrease in cAMP accumulation
Emax [12]: 3.1 ± 0.9%
ERK1/2‐phosphorylation % PDBu ([14]; CHO‐α1A cells, % of 10 µM PDBu, ^a bi‐phasic: initial stimulatory part): 92.8 ± 2.7%

Source: article PMC8343220, “The selectivity of α‐adrenoceptor agonists for the human α1A, α1B, and α1D‐adrenoceptors” (Pharmacology Research & Perspectives, 2021)
